Common to all, as to format: in vivo
In experiment [1] the test system is Amaranthus retoflexus (AMARE). The experiment in a line: Pre-emergence biological efficacy, glasshouse pot test. The conditions noted are these: Amaranthus retroflexus, 312 h. The essentials:
(§1)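 Glasshouse pot test: spray on soil one day after sowing, 1000 or 250 g/ha. Conditions 24/16 °C day/night, 14 h light, 65% humidity. Plant damage scored 0–100 at 13 days.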

Experiment [2] concerns Ipomea hederaceae (IPOHE). The description is as above. The note with it: Ipomoea hederacea, 312 h. The essentials: as §1
Experiment [3] has as its system Alopecurus myosuroides (ALOMY). The description is as above. The conditions noted are these: 312 h. The essentials:
as §1

For experiment [4], the system named is Setaria faberi (SETFA). The experiment is described as above. The note with it: 312 h. The essentials:
as §1

For experiment [5], the system named is Echinochloa crus-galli (ECHCG). Described as above. The conditions noted are these: 312 h. The essentials: as §1
Experiment [6] deals with Solanum nigrum (SOLNI). Described as above. The conditions noted are these: 312 h. An outline of the steps: as §1
Experiment [7] deals with Amaranthus retoflexus (AMARE). The experiment in a line: Post-emergence biological efficacy, glasshouse pot test. The note with it: Amaranthus retroflexus, 312 h. An outline of the steps: (§2)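 Pot-grown weeds were sprayed 8 days after sowing with test compound in acetone/water (50:50) with 0.5% Tween 20 at 1000 or 250 g/ha. Glasshouse at 24/16° C day/night, 14 h light, 65% humidity. Damage scored 0-100 (100 = total damage) after 13 days.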

For experiment [8], the system named is Ipomea hederaceae (IPOHE). Described as above. The note with it: Ipomoea hederacea, 312 h. The essentials: as §2
Experiment [9] deals with Alopecurus myosuroides (ALOMY). Described as above. The note with it: 312 h. An outline of the steps:
as §2

Experiment [10] has as its system Setaria faberi (SETFA). The experiment is described as above. The note with it: 312 h. The essentials: as §2
In experiment [11] the test system is Echinochloa crus-galli (ECHCG). Described as above. The conditions noted are these: 312 h. An outline of the steps:
as §2

Experiment [12] concerns Solanum nigrum (SOLNI). Described as above. The note with it: 312 h. An outline of the steps: as §2
[13] abbreviates: pre-emergence, rate 1,000 g/ha, evaluated after 13 days (100=total damage to plant; 0=no damage), read-out: Percentage damage caused to weed species, AMARE.
The mark [14] stands for this setting: pre-emergence, rate 1,000 g/ha, evaluated after 13 days (100=total damage to plant; 0=no damage), read-out: Percentage damage caused to weed species, IPOHE.
[15] abbreviates: pre-emergence, rate 1,000 g/ha, evaluated after 13 days (100=total damage to plant; 0=no damage), read-out: Percentage damage caused to weed species, ALOMY.
[16] abbreviates: pre-emergence, rate 1,000 g/ha, evaluated after 13 days (100=total damage to plant; 0=no damage), read-out: Percentage damage caused to weed species, SETFA.
Setting [17] is: pre-emergence, rate 1,000 g/ha, evaluated after 13 days (100=total damage to plant; 0=no damage), read-out: Percentage damage caused to weed species, ECHCG.
Where [18] appears, read: pre-emergence, rate 1,000 g/ha, evaluated after 13 days (100=total damage to plant; 0=no damage), read-out: Percentage damage caused to weed species, SOLNI.
[19] abbreviates: Rate 1,000 g/ha, post-emergence spray, evaluated after 13 days (100=total damage to plant; 0=no damage to plant), read-out: Percentage damage caused to weed species, post-emergence, AMARE.
Setting [20] is: Rate 1,000 g/ha, post-emergence spray, evaluated after 13 days (100=total damage to plant; 0=no damage to plant), read-out: Percentage damage caused to weed species, post-emergence, IPOHE.
[21] abbreviates: Rate 1,000 g/ha, post-emergence spray, evaluated after 13 days (100=total damage to plant; 0=no damage to plant), read-out: Percentage damage caused to weed species, post-emergence, ALOMY.
Setting [22] is: Rate 1,000 g/ha, post-emergence spray, evaluated after 13 days (100=total damage to plant; 0=no damage to plant), read-out: Percentage damage caused to weed species, post-emergence, SETFA.
The mark [23] stands for this setting: Rate 1,000 g/ha, post-emergence spray, evaluated after 13 days (100=total damage to plant; 0=no damage to plant), read-out: Percentage damage caused to weed species, post-emergence, ECHCG.
Setting [24] is: Rate 1,000 g/ha, post-emergence spray, evaluated after 13 days (100=total damage to plant; 0=no damage to plant), read-out: Percentage damage caused to weed species, post-emergence, SOLNI.
The mark [25] stands for this setting: pre-emergence, 1,000 g/ha, evaluated after 13 days (100=total damage; 0=no damage), read-out: Percentage damage AMARE.
The mark [26] stands for this setting: pre-emergence, 1,000 g/ha, evaluated after 13 days (100=total damage; 0=no damage), read-out: Percentage damage IPOHE.
The mark [27] stands for this setting: pre-emergence, 1,000 g/ha, evaluated after 13 days (100=total damage; 0=no damage), read-out: Percentage damage ALOMY.
Setting [28] is: pre-emergence, 1,000 g/ha, evaluated after 13 days (100=total damage; 0=no damage), read-out: Percentage damage SETFA.
Setting [29] is: pre-emergence, 1,000 g/ha, evaluated after 13 days (100=total damage; 0=no damage), read-out: Percentage damage ECHCG.
[30] abbreviates: pre-emergence, 1,000 g/ha, evaluated after 13 days (100=total damage; 0=no damage), read-out: Percentage damage SOLNI.
Where [31] appears, read: post-emergence, 1,000 g/ha, evaluated after 13 days (100=total damage; 0=no damage), read-out: Percentage damage caused to weed species, AMARE.
[32] abbreviates: post-emergence, 1,000 g/ha, evaluated after 13 days (100=total damage; 0=no damage), read-out: Percentage damage caused to weed species, IPOHE.
Setting [33] is: post-emergence, 1,000 g/ha, evaluated after 13 days (100=total damage; 0=no damage), read-out: Percentage damage caused to weed species, ALOMY.
Setting [34] is: post-emergence, 1,000 g/ha, evaluated after 13 days (100=total damage; 0=no damage), read-out: Percentage damage caused to weed species, SETFA.
Where [35] appears, read: post-emergence, 1,000 g/ha, evaluated after 13 days (100=total damage; 0=no damage), read-out: Percentage damage caused to weed species, ECHCG.
[36] abbreviates: post-emergence, 1,000 g/ha, evaluated after 13 days (100=total damage; 0=no damage), read-out: Percentage damage caused to weed species, SOLNI.

As for `COC(=O)c1nc(C2CC2)nc(N(C)Cc2ccncc2)c1Cl` [Compound 5-160, 5-Chloro-2-cyclopropyl-6-methoxycarbonyl-4-(N-methyl-N-pyridin-4-ylmethyl-amino)pyrimidine], the pest or weed control at 1000 g/ha stood at 80% in [1] (setting [13]); 70% in [2] (setting [14]); 0% in experiment [3] (setting [15]); 0% with Setaria faberi (SETFA) [4] (setting [16]); 20% in experiment [5] (setting [17]); 40% in the experiment on Solanum nigrum (SOLNI) [6] (setting [18]). Besides, the pest or weed control at 1000 g/ha in experiment [7] (setting [19]) is 100%; in experiment [8] (setting [20]) it was 100%; in experiment [9] (setting [21]) it was 20%; in the experiment on Setaria faberi (SETFA) [10] (setting [22]), 60%; in experiment [11] (setting [23]) it was 0%; in the experiment with Solanum nigrum (SOLNI) [12] (setting [24]), 80%.
`CCCCOc1ccc(CNc2nc(C3CC3)nc(C(=O)OC)c2Cl)cc1` [Compound 4-82, 4-(4-^nButoxyphenyl-methylamino)-5-chloro-2-cyclo-propyl-6-methoxy-carbonylpyrimidine]: the pest or weed control at 1000 g/ha came out at 90% in [1] (setting [25]); 100% in experiment [2] (setting [26]); 40% in experiment [3] (setting [27]); 80% in the experiment with Setaria faberi (SETFA) [4] (setting [28]); 60% in experiment [5] (setting [29]); 90% in the experiment on Solanum nigrum (SOLNI) [6] (setting [30]). The pest or weed control at 1000 g/ha in [7] (setting [31]) was 100%; in [8] (setting [32]), 100%; in [9] (setting [33]), 30%; in the experiment on Setaria faberi (SETFA) [10] (setting [34]) it was 80%; in experiment [11] (setting [35]), 60%; in the experiment on Solanum nigrum (SOLNI) [12] (setting [36]) it was 100%.
Consider `COC(=O)c1nc(-c2ccc(OC)cc2F)nc(NCc2ccco2)c1Cl` [Compound 258-48, 5-Chloro-2-(2-fluoro-4-methoxyphenyl)-4-(furan-2-ylmethyl-amino)-6-methoxy-carbonylpyrimidine], for which the pest or weed control at 1000 g/ha in experiment [1] (setting [13]) was 70%; in [2] (setting [14]) it was 30%; in [3] (setting [15]) it was 30%; in the experiment with Setaria faberi (SETFA) [4] (setting [16]), 20%; in [5] (setting [17]), 0%; in the experiment on Solanum nigrum (SOLNI) [6] (setting [18]) it was 0%. Moreover, the pest or weed control at 1000 g/ha worked out at 90% in experiment [7] (setting [19]); 30% in experiment [8] (setting [20]); 10% in experiment [9] (setting [21]); 40% in the experiment on Setaria faberi (SETFA) [10] (setting [22]); 0% in experiment [11] (setting [23]); 50% in the experiment on Solanum nigrum (SOLNI) [12] (setting [24]).
On to `COC(=O)c1nc(C2CC2)nc(NCCc2ccccn2)c1Cl` [Compound 4-228, 5-Chloro-2-cyclopropyl-6-methoxycarbonyl-4-[2-(pyrid-2-yl)ethylamino]-pyrimidine], for which the pest or weed control at 1000 g/ha in [1] (setting [25]) amounted to 70%; in [2] (setting [26]), 40%; in experiment [3] (setting [27]), 0%; in the experiment on Setaria faberi (SETFA) [4] (setting [28]), 0%; in experiment [5] (setting [29]), 0%; in the experiment on Solanum nigrum (SOLNI) [6] (setting [30]), 40%. Further, the pest or weed control at 1000 g/ha came to 90% in experiment [7] (setting [31]); 70% in experiment [8] (setting [32]); 10% in experiment [9] (setting [33]); 50% in the experiment with Setaria faberi (SETFA) [10] (setting [34]); 40% in experiment [11] (setting [35]); 80% with Solanum nigrum (SOLNI) [12] (setting [36]).
As to `COC(=O)c1nc(C2CC2)nc(N[C@@H](CC2CCCCC2)C(=O)OC)c1Cl` [4-282 (S), 5-Chloro-4-[(1S)-2-cyclohexyl-1-methoxycarbonyl-ethylamino]-2-cyclopropyl-6-methoxycarbonyl-pyrimidine], the pest or weed control at 1000 g/ha was 90% in experiment [1] (setting [25]); 80% in experiment [2] (setting [26]); 10% in experiment [3] (setting [27]); 20% in the experiment on Setaria faberi (SETFA) [4] (setting [28]); 30% in experiment [5] (setting [29]); 90% with Solanum nigrum (SOLNI) [6] (setting [30]). Moreover, the pest or weed control at 1000 g/ha was 100% in experiment [7] (setting [31]); 80% in experiment [8] (setting [32]); 20% in experiment [9] (setting [33]); 60% in the experiment on Setaria faberi (SETFA) [10] (setting [34]); 20% in [11] (setting [35]); 80% with Solanum nigrum (SOLNI) [12] (setting [36]).
`COC(=O)c1nc(C2CC2)nc(N(C)Cc2ccc([N+](=O)[O-])cc2)c1Cl` [Compound 5-92, 5-Chloro-2-cyclopropyl-6-methoxycarbonyl-4-[N-methyl-N-(4-nitrophenylmethyl)-amino]-pyrimidine]: the pest or weed control at 1000 g/ha in experiment [1] (setting [13]) was determined as 90%; in experiment [2] (setting [14]), 70%; in [3] (setting [15]) it was 20%; in the experiment on Setaria faberi (SETFA) [4] (setting [16]), 10%; in [5] (setting [17]), 10%; in the experiment on Solanum nigrum (SOLNI) [6] (setting [18]), 60%. Further, the pest or weed control at 1000 g/ha in experiment [7] (setting [19]) is 100%; in experiment [8] (setting [20]), 100%; in experiment [9] (setting [21]) it was 50%; in the experiment on Setaria faberi (SETFA) [10] (setting [22]), 60%; in [11] (setting [23]), 40%; with Solanum nigrum (SOLNI) [12] (setting [24]), 80%.
Consider `COC(=O)c1nc(-c2ccc(F)c(F)c2F)nc(NCc2ccco2)c1Cl` [Compound 247-48, 5-Chloro-4-(furan-2-ylmethylamino)-6-methoxycarbonyl-2-(2,3,4-trifluoro-phenyl)pyrimidine], for which the pest or weed control at 1000 g/ha was 90% in experiment [1] (setting [13]); 40% in [2] (setting [14]); 10% in experiment [3] (setting [15]); 20% in the experiment on Setaria faberi (SETFA) [4] (setting [16]); 10% in [5] (setting [17]); 40% in the experiment with Solanum nigrum (SOLNI) [6] (setting [18]). Besides, the pest or weed control at 1000 g/ha was determined as 100% in [7] (setting [19]); 60% in experiment [8] (setting [20]); 30% in experiment [9] (setting [21]); 40% in the experiment on Setaria faberi (SETFA) [10] (setting [22]); 60% in experiment [11] (setting [23]); 90% with Solanum nigrum (SOLNI) [12] (setting [24]).

The values above are taken from patent US20110086759A1, “CHEMICAL COMPOUNDS” (SYNGENTA CROP PROTECTION, INC., priority 2007, published 2011).
